Counter-ions that a name gives are not always drawn.
Biological target: AMPK
Assay: AMPK activation, enzyme-linked immunosorbent assay
Type: biochemical
Conditions: Table 2, AMPK activation, ELISA
Experimental: Compounds 1-50 of Table 1 were assayed for their ability to activate AMPK using an enzyme-linked immunosorbent assay.
Compounds 51-60 of Table 1 were assayed for their ability to activate AMPK using an enzyme-linked immunosorbent assay.
Compounds 61-131 of Table 1 were assayed for their ability to activate AMPK using an enzyme-linked immunosorbent assay.
Compounds 137-141 and 143-155 of Table 1 were assayed for their ability to activate AMPK using an enzyme-linked immunosorbent assay.
Compounds 156-160 of Table 1 were assayed for their ability to activate AMPK using an enzyme-linked immunosorbent assay.

EC50 [nM] | Structure (SMILES)
500 to 1000 | O=C(NC1CCN(Cc2ccncc2)CC1)c1ccnc(OC2CCN(c3ccc(C(F)(F)F)cc3)CC2)c1 [Compound 20, N-(1-(pyridin-4-ylmethyl)piperidin-4-yl)-2-(1-(4-(trifluoromethyl)phenyl)piperidin-4-yloxy)isonicotinamide]
< 100 | O=C(NC1CCN(Cc2ccncc2)CC1)c1ccc(OC2CCN(c3ccc(C(F)(F)F)cc3)CC2)nc1 [Compound 10, N-(1-(pyridin-4-ylmethyl)piperidin-4-yl)-6-(1-(4-(trifluoromethyl)phenyl)piperidin-4-yloxy)nicotinamide]
1000 to 5000 | O=C(NC1CCN(Cc2ccncc2)CC1)c1cccc(OC2CCN(c3ccc(C(F)(F)F)cc3)CC2)n1 [Compound 43, N-(1-(pyridin-4-ylmethyl)piperidin-4-yl)-6-(1-(4-(trifluoromethyl)phenyl)piperidin-4-yloxy)picolinamide]
100 to 500 | CN(C)c1ccc(CN2CCC(NC(=O)c3ccc(OC4CCN(c5ccc(C(F)(F)F)cc5)CC4)cn3)CC2)cc1 [Compound 39, N-(1-(4-(dimethylamino)benzyl)piperidin-4-yl)-5-(1-(4-(trifluoromethyl)phenyl)piperidin-4-yloxy)picolinamide]
500 to 1000 | CC(C)(C)OC(=O)N1CCC(NC(=O)c2cc(OC3CCN(c4ccc(C(F)(F)F)cc4)CC3)ccn2)CC1 [Compound 12, tert-butyl 4-(4-(1-(4-(trifluoromethyl)phenyl)piperidin-4-yloxy)picolinamido) piperidine-1-carboxylate]
< 100 | O=C(NC1CCN(Cc2ccncc2)CC1)c1cncc(OC2CCN(c3ccc(C(F)(F)F)cc3)CC2)c1 [Compound 14, N-(1-(pyridin-4-ylmethyl)piperidin-4-yl)-5-(1-(4-(trifluoromethyl)phenyl)piperidin-4-yloxy)nicotinamide]
< 100 | O=C(NC1CCN(Cc2cccnc2)CC1)c1ccc(OC2CCN(c3ccc(C(F)(F)F)cc3)CC2)cn1 [Compound 5, N-(1-(pyridin-3-ylmethyl)piperidin-4-yl)-5-(1-(4-(trifluoromethyl)phenyl)piperidin-4-yloxy)picolinamide]

Same assay, conditions: Table 3, AMPK activation, ELISA

EC50 [nM] | Structure (SMILES)
> 50000 | O=C(c1ccc(F)cc1)N1CCC(NS(=O)(=O)c2ccc(OC3CCN(c4ccc(C(F)(F)F)cc4)CC3)nc2)CC1 [Compound 60, N-(1-(4-fluorobenzoyl)piperidin-4-yl)-6-(1-(4-(trifluoromethyl)phenyl)piperidin-4-yloxy)pyridine-3-sulfonamide]
100 to 500 | N#Cc1ccc(N2CCC(Oc3ccc(S(=O)(=O)NC4CCN(Cc5ccncc5)CC4)cn3)CC2)cc1 [Compound 52, N-(1-(pyridin-4-ylmethyl)piperidin-4-yl)-6-(1-(4-cyanophenyl)piperidin-4-yloxy)pyridine-3-sulfonamide]
1000 to 5000 | O=S(=O)(NC1CCNCC1)c1ccc(OC2CCN(c3ccc(C(F)(F)F)cc3)CC2)nc1 [Compound 55, N-(piperidin-4-yl)-6-(1-(4-(trifluoromethyl)phenyl)piperidin-4-yloxy)pyridine-3-sulfonamide]
100 to 500 | O=S(=O)(NC1CCN(Cc2ccncc2)CC1)c1ccc(OC2CCN(c3ccc(C(F)(F)F)cc3)CC2)nc1 [Compound 51, N-(1-(pyridin-4-ylmethyl)piperidin-4-yl)-6-(1-(4-(trifluoromethyl)phenyl)piperidin-4-yloxy)pyridine-3-sulfonamide]

Same assay, conditions: Table 4, AMPK activation, ELISA

EC50 [nM] | Structure (SMILES)
1000 to 10000 | NC(=O)c1ccc(CN2CCC(Oc3ccc4oc(C(=O)NC5CCN(Cc6ccncc6)CC5)cc4c3)CC2)cc1 [Compound 131, 5-(1-(4-carbamoylbenzyl)piperidin-4-yloxy)-N-(1-(pyridin-4-ylmethyl)piperidin-4-yl)benzofuran-2-carboxamide]
100 to 500 | O=C(NC1CCNCC1)c1cc2ccc(OC3CCN(c4ccc(OC(F)(F)F)cc4)CC3)cc2o1 [Compound 83, N-(piperidin-4-yl)-6-(1-(4-(trifluoromethoxy)phenyl)piperidin-4-yloxy)benzofuran-2-carboxamide hydrochloride]
< 100 | Cc1c(C(=O)NC2CCN(Cc3ccc(C#N)cc3)CC2)oc2cc(OC3CCN(c4ccc(C(F)(F)F)cc4)CC3)ccc12 [Compound 64, N-(1-(4-cyanobenzyl)piperidin-4-yl)-3-methyl-6-(1-(4-(trifluoromethyl)phenyl)piperidin-4-yloxy)benzofuran-2-carboxamide]
< 100 | Cc1c(C(=O)NC2CCN(Cc3ccncc3)CC2)oc2cc(OC3CCN(c4ccc(C(F)(F)F)cc4)CC3)ccc12 [Compound 65, 3-methyl-N-(1-(pyridin-4-ylmethyl)piperidin-4-yl)-6-(1-(4-(trifluoromethyl)phenyl)piperidin-4-yloxy)benzofuran-2-carboxamide]
< 100 | O=C(NC1CCN(Cc2ccncc2)CC1)c1cc2ccc(OC3CCN(c4ccc(OC(F)(F)F)cc4)CC3)cc2o1 [Compound 88, N-(1-(pyridin-4-ylmethyl)piperidin-4-yl)-6-(1-(4-(trifluoromethoxy)phenyl)piperidin-4-yloxy)benzofuran-2-carboxamide]
< 100 | Cc1c(C(=O)NC2CCN(Cc3cccnc3)CC2)oc2cc(OC3CCN(c4ccc(C(F)(F)F)cc4)CC3)ccc12 [Compound 69, 3-methyl-N-(1-(pyridin-3-ylmethyl)piperidin-4-yl)-6-(1-(4-(trifluoromethyl)phenyl)piperidin-4-yloxy)benzofuran-2-carboxamide]
100 to 500 | CN(C(=O)c1cc2cc(OC3CCN(c4ccc(C(F)(F)F)cc4)CC3)ccc2o1)C1CCN(C(=O)c2ccncc2)CC1 [Compound 118, N-(1-isonicotinoylpiperidin-4-yl)-N-methyl-5-(1-(4-(trifluoromethyl)phenyl)piperidin-4-yloxy)benzofuran-2-carboxamide]
< 100 | Cc1c(C(=O)NC2CCN(Cc3ccc(F)cc3)CC2)oc2cc(OC3CCN(c4ccc(C(F)(F)F)cc4)CC3)ccc12 [Compound 63, N-(1-(4-fluorobenzyl)piperidin-4-yl)-3-methyl-6-(1-(4-(trifluoromethyl)phenyl)piperidin-4-yloxy)benzofuran-2-carboxamide]
< 100 | O=C(NC1CCN(Cc2ccc(C(F)(F)F)cc2)CC1)c1cc2cc(OC3CCN(c4ccc(C(F)(F)F)cc4)CC3)ccc2o1 [Compound 100, N-(1-(4-(trifluoromethyl)benzyl)piperidin-4-yl)-5-(1-(4-(trifluoromethyl)phenyl)piperidin-4-yloxy)benzofuran-2-carboxamide]
> 50000 | O=C(NC1CCNCC1)c1cc2cc(OC3CCN(c4ccc(C(F)(F)F)cc4)CC3)ccc2o1 [Compound 86, N-(piperidin-4-yl)-5-(1-(4-(trifluoromethyl)phenyl)piperidin-4-yloxy)benzofuran-2-carboxamide hydrochloride]
100 to 500 | O=C(NC1CCN(Cc2ccccn2)CC1)c1cc2ccc(OC3CCN(c4ccc(C(F)(F)F)cc4)CC3)cc2o1 [Compound 93, N-(1-(pyridin-2-ylmethyl)piperidin-4-yl)-6-(1-(4-(trifluoromethyl)phenyl)piperidin-4-yloxy)benzofuran-2-carboxamide]
1000 to 10000 | O=C(N[C@@H]1CCN(C(=O)c2ccncc2)C1)c1cc2cc(OC3CCN(c4ccc(C(F)(F)F)cc4)CC3)ccc2o1 [Compound 125, (R)-N-(1-isonicotinoylpyrrolidin-3-yl)-5-(1-(4-(trifluoromethyl)phenyl)piperidin-4-yloxy)benzofuran-2-carboxamide]
100 to 500 | O=C(NC1CCN(Cc2ccccc2)CC1)c1cc2cc(OC3CCN(Cc4ccc(F)c(F)c4)CC3)ccc2o1 [Compound 74, N-(1-benzylpiperidin-4-yl)-5-(1-(3,4-difluorobenzyl)piperidin-4-yloxy)benzofuran-2-carboxamide]

Same assay, conditions: Table 5, AMPK activation, ELISA

EC50 [nM] | Structure (SMILES)
< 100 | N#Cc1ccc(CN2CCC(NC(=O)c3sc4cc(OC5CCN(c6ccc(C(F)(F)F)cc6)CC5)ccc4c3Cl)CC2)cc1 [Compound 154, 3-chloro-N-(1-(4-cyanobenzyl)piperidin-4-yl)-6-(1-(4-(trifluoromethyl)phenyl)piperidin-4-yloxy)benzo[b]thiophene-2-carboxamide]
500 to 1000 | CC(C)(C)OC(=O)N1CCC(NC(=O)c2cc3ccc(OC4CCN(c5ccc(C(F)(F)F)cc5)CC4)cc3s2)CC1 [Compound 140, tert-butyl 4-(6-(1-(4-(trifluoromethyl)phenyl)piperidin-4-yloxy)benzo[b]thiophene-2-carboxamido)piperidine-1-carboxylate]
< 100 | O=C(NC1CCN(Cc2ccncc2)CC1)c1cc2cc(OC3CCN(c4ccc(C(F)(F)F)cc4)CC3)ccc2s1 [Compound 138, N-(1-(pyridin-4-ylmethyl)piperidin-4-yl)-5-(1-(4-(trifluoromethyl)phenyl)piperidin-4-yloxy)benzo[b]thiophene-2-carboxamide]
1000 to 50000 | CC(C)(C)OC(=O)N1CCC(NC(=O)c2sc3cc(OC4CCN(c5ccc(C(F)(F)F)cc5)CC4)ccc3c2Cl)CC1 [Compound 147, tert-butyl 4-(3-chloro-6-(1-(4-(trifluoromethyl)phenyl)piperidin-4-yloxy)benzo[b]thiophene-2-carboxamido)piperidine-1-carboxylate]
< 100 | CC(C)(C)OC(=O)N1CCC(NC(=O)c2cc3cc(OC4CCN(c5ccc(C(F)(F)F)cc5)CC4)ccc3s2)CC1 [Compound 149, tert-butyl 4-(5-(1-(4-(trifluoromethyl)phenyl)piperidin-4-yloxy)benzo[b]thiophene-2-carboxamido)piperidine-1-carboxylate]

Same assay, conditions: Table 6, AMPK activation, ELISA

EC50 [nM] | Structure (SMILES)
500 to 1000 | FC(F)(F)c1ccc(N2CCC(Oc3ccc4c(c3)CCC4NC3CCN(Cc4ccncc4)CC3)CC2)cc1 (stereo not drawn) [Compound 158, 1-(pyridin-4-ylmethyl)-N-(5-(1-(4-(trifluoromethyl)phenyl)piperidin-4-yloxy)-2,3-dihydro-1H-inden-1-yl)piperidin-4-amine]
